Test results: ChEMBL document CHEMBL1124752, “Cyclobut-A and cyclobut-G: broad-spectrum antiviral agents with potential utility for the therapy of AIDS” (J Med Chem, 1990)
In brackets after ≈: the same amount, converted by molar mass.

Key:
[1] = test system: Murid betaherpesvirus 1; experiment: Tested for mean day to death of nonsurvivors against systemic MCMV infection in mice at 100 mg/kg/day; format: functional
[2] = test system: Murid betaherpesvirus 1; experiment: Number of survivors per number of systemic MCMV infected mice treated with 33.4 mg/kg/day; 13/15; format: functional
[3] = test system: Human alphaherpesvirus 2; experiment: Tested for the effective dose required to inhibit HSV-2 encephalitis in infected mice; format: functional, herpes simplex virus
[4] = test system: Human alphaherpesvirus 2; experiment: Tested for mean day to death of nonsurvivors against HSV-2 encephalitis in mice at 125 mg/kg/day; format: functional, herpes simplex virus
[5] = test system: Murid betaherpesvirus 1; experiment: Number of survivors per number of systemic MCMV infected mice treated with 3.8 mg/kg/day; 7/15; format: functional
[6] = test system: Human betaherpesvirus 5; experiment: In vitro antiviral activity tested against herpesvirus, HCMV, Davis strain by plaque reduction assay in human foreskin fibroblasts; format: functional
[7] = test system: Murid betaherpesvirus 1; experiment: Number of survivors per number of systemic MCMV infected mice treated with 11.2 mg/kg/day; 9/15; format: functional
[8] = test system: Human alphaherpesvirus 2; experiment: In vitro antiviral activity tested against herpesvirus, HSV-2, JEN strain by plaque reduction assay in human foreskin fibroblasts; format: functional
[9] = test system: Human alphaherpesvirus 1; experiment: Number of survivors per number of HSV-1 infected mice treated with 4.7 mg/kg/day; 7/10; format: functional, herpes simplex virus
[10] = test system: Human alphaherpesvirus 1; experiment: Number of survivors per number of HSV-1 infected mice treated with 18.7 mg/kg/day; 10/10; format: functional, herpes simplex virus
[11] = test system: Human immunodeficiency virus 1; experiment: Tested for the determination of percentage protection at 100 uM against HIV-1 in ATH8 cells; format: functional, ATH-8
[12] = test system: Human alphaherpesvirus 3; experiment: In vitro antiviral activity tested against herpesvirus, VZV, Ellen strain by plaque reduction assay in human foreskin fibroblasts; format: functional
[13] = test system: Human alphaherpesvirus 2; experiment: Number of survivors per number of HSV-2 infected mice treated with 125 mg/kg/day; 8/10; format: functional, herpes simplex virus
[14] = test system: Human immunodeficiency virus 1; experiment: Tested for the determination of percentage toxicity at 10 uM against HIV-1 in ATH8 cells; format: organism-based; settings: human immunodeficiency virus 1, ath-8, 10 µM
[15] = test system: Human alphaherpesvirus 1; experiment: Tested for mean day to death of nonsurvivors against HSV-1 infection in mice at 4.7 mg/kg/day; format: functional, herpes simplex virus
[16] = test system: Human alphaherpesvirus 2; experiment: Number of survivors per number of HSV-2 infected mice treated with 7.8 mg/Kg/day; 5/10; format: functional, herpes simplex virus
[17] = test system: Murid betaherpesvirus 1; experiment: In vitro antiviral activity tested against herpesvirus, MCMV, Smith strain by plaque reduction assay in mouse embryo fibroblasts; format: functional
[18] = test system: Human betaherpesvirus 5; experiment: In vitro antiviral activity tested against herpesvirus, HCMV, LA strain by plaque reduction assay in human foreskin fibroblasts; format: functional
[19] = test system: Human alphaherpesvirus 1; experiment: Tested for the effective dose required to inhibit HSV-1 in infected mice; format: functional, herpes simplex virus
[20] = test system: Human immunodeficiency virus 1; experiment: Tested for the determination of percentage protection at 10 uM against HIV-1 in ATH8 cells; format: functional, ATH-8
[21] = test system: Murid betaherpesvirus 1; experiment: Tested for the effective dose required to inhibit systemic MCMV in infected mice; format: functional
[22] = test system: Human alphaherpesvirus 1; experiment: Tested for mean day to death of nonsurvivors against HSV-1 infection in mice at 1.2 mg/kg/day; format: functional, herpes simplex virus
[23] = test system: Murid betaherpesvirus 1; experiment: Number of survivors per number of systemic MCMV infected mice treated with 100 mg/kg/day; 13/15; format: functional
[24] = test system: Murid betaherpesvirus 1; experiment: Tested for mean day to death of nonsurvivors against systemic MCMV infection in mice at 3.8 mg/kg/day; format: functional
[25] = test system: Human betaherpesvirus 5; experiment: In vitro antiviral activity tested against herpesvirus, HCMV, AD169 strain by plaque reduction assay in human foreskin fibroblasts; format: functional
[26] = test system: Human alphaherpesvirus 2; experiment: In vitro antiviral activity tested against herpesvirus, HSV-2, HEET strain by plaque reduction assay in human foreskin fibroblasts; format: functional
[27] = test system: Human immunodeficiency virus 1; experiment: Tested for the determination of percentage protection at 1 uM against HIV-1 in ATH8 cells; format: functional, ATH-8
[28] = test system: Human alphaherpesvirus 3; experiment: In vitro antiviral activity tested against herpesvirus, VZV, OKA strain by plaque reduction assay in human foreskin fibroblasts; format: functional
[29] = test system: Murid betaherpesvirus 1; experiment: Tested for mean day to death of nonsurvivors against systemic MCMV infection in mice at 33.4 mg/kg/day; format: functional
[30] = test system: Human alphaherpesvirus 2; experiment: Tested for mean day to death of nonsurvivors against HSV-2 encephalitis in mice at 31.2 mg/kg/day; format: functional, herpes simplex virus
[31] = test system: Human alphaherpesvirus 2; experiment: Tested for mean day to death of nonsurvivors against HSV-2 encephalitis in mice at 7.8 mg/kg/day; format: functional, herpes simplex virus
[32] = test system: Murid betaherpesvirus 1; experiment: Tested for mean day to death of nonsurvivors against systemic MCMV infection in mice at 11.2 mg/kg/day; format: functional
[33] = test system: Human immunodeficiency virus 1; experiment: Tested for the determination of percentage toxicity at 100 uM against HIV-1 in ATH8 cells; format: organism-based; settings: human immunodeficiency virus 1, ath-8, 100 µM
[34] = test system: Raji; experiment: Tested for the inhibition of diffuse early antigen production assayed by immunofluorescent monoclonal antibody in Raji cells; format: functional; settings: Homo sapiens
[35] = species on record: Homo sapiens; experiment: The drug concentration was determined to reduce proliferation of human foreskin fibroblasts to 50% of untreated controls in proliferation assay; format: functional; settings: read-out: ID50 (the source's name)
[36] = test system: Human alphaherpesvirus 2; experiment: In vitro antiviral activity tested against herpesvirus, HSV-2, X-79 strain by plaque reduction assay in human foreskin fibroblasts; format: functional
[37] = test system: Human immunodeficiency virus 1; experiment: Tested for the determination of percentage toxicity at 1 uM against HIV-1 in ATH8 cells; format: organism-based; settings: human immunodeficiency virus 1, ath-8, 1 µM
[38] = test system: Human immunodeficiency virus 1; experiment: Tested for the determination of percentage protection at 50 uM against HIV-1 in ATH8 cells; format: functional, ATH-8
[39] = test system: Human alphaherpesvirus 2; experiment: Number of survivors per number of HSV-2 infected mice treated with 31.2 mg/Kg/day; 4/10; format: functional, herpes simplex virus
[40] = test system: Human alphaherpesvirus 1; experiment: Number of survivors per number of HSV-1 infected mice treated with 1.2 mg/kg/day; 4/10; format: functional, herpes simplex virus
[41] = test system: Human immunodeficiency virus 1; experiment: Tested for the determination of percentage toxicity at 50 uM against HIV-1 in ATH8 cells; format: organism-based; settings: human immunodeficiency virus 1, ath-8, 50 µM
[42] = test system: Human alphaherpesvirus 2; experiment: In vitro antiviral activity tested against herpesvirus, HSV-2, MS strain by plaque reduction assay in human foreskin fibroblasts; format: functional
[43] = test system: Human betaherpesvirus 5; experiment: In vitro antiviral activity tested against herpesvirus, HCMV, EC strain by plaque reduction assay in human foreskin fibroblasts; format: functional
[44] = test system: Human alphaherpesvirus 1; experiment: In vitro antiviral activity tested against herpesvirus, HSV-1, E-377 strain by plaque reduction assay in human foreskin fibroblasts; format: functional
[45] = test system: Human immunodeficiency virus 1; experiment: Tested for the determination of percentage toxicity at 500 uM against HIV-1 in ATH8 cells; format: organism-based; settings: human immunodeficiency virus 1, ath-8, 500 µM
[46] = test system: Human immunodeficiency virus 1; experiment: Tested for the determination of percentage protection atuM against HIV-1 in ATH8 Cells; format: functional
[47] = test system: Human immunodeficiency virus 1; experiment: Tested for the determination of percentage protection at 10 uM against HIV-1 in ATH8; format: functional
[48] = test system: Human immunodeficiency virus 1; experiment: Tested for the determination of percentage toxicity at 2 uM against HIV-1 in ATH8 cells; format: organism-based; settings: human immunodeficiency virus 1, ath-8, 2 µM
[49] = test system: Human immunodeficiency virus 1; experiment: Tested for the determination of percentage protection atuM against HIV-1 in ATH8 cells; format: functional, ATH-8
[50] = read-out: ED50 (the source's name)
[51] = read-out: ID50 (the source's name)

Q: What does the source list for Nc1nc(O)c2ncn([C@@H]3C[C@H](CO)C3CO)c2n1 (stereo not given in full)?
A: MDD [1]: 3.5; Survivors / treated [2]: 13; ED50 [3]: 39.8 mg/kg/day; MDD [4]: 16.3; Survivors / treated [5]: 7; EC50 [6, 50]: 4.9 µg/mL (≈ 18.5 µM); IC50 [6, 51]: > 100 µg/mL; Survivors / treated [7]: 9; EC50 [8, 50]: 0.05 µg/mL (≈ 0.188 µM); IC50 [8, 51]: > 100 µg/mL; Survivors / treated [9]: 7; Survivors / treated [10]: 10; Protection [11]: 11%; EC50 [12, 50]: 0.4 µg/mL (≈ 1.51 µM); IC50 [12, 51]: > 100 µg/mL; Survivors / treated [13]: 8; Cytotoxity [14]: 0%; MDD [15]: 9.3; Survivors / treated [16]: 5; EC50 [17, 50]: 0.1 µg/mL (≈ 0.377 µM); IC50 [17, 51]: > 100 µg/mL; EC50 [18, 50]: 1.2 µg/mL (≈ 4.52 µM); IC50 [18, 51]: > 100 µg/mL; ED50 [19]: 1.9 mg/kg/day; Protection [20]: 100%; ED50 [21]: 2.2 mg/kg/day; MDD [22]: 9.3; Survivors / treated [23]: 13; MDD [24]: 5.9; EC50 [25, 50]: 6.2 µg/mL (≈ 23.4 µM); IC50 [25, 51]: > 100 µg/mL; EC50 [26, 50]: 0.07 µg/mL (≈ 0.264 µM); IC50 [26, 51]: > 100 µg/mL; Protection [27]: 29%; EC50 [28, 50]: 0.4 µg/mL (≈ 1.51 µM); IC50 [28, 51]: > 100 µg/mL; MDD [29]: 4.5; MDD [30]: 11.2; MDD [31]: 12.1; MDD [32]: 5.8; Cytotoxity [33]: 83%; EC50 [34, 50]: 0.01 µg/mL (≈ 0.0377 µM); IC50 [34, 51]: 94 µg/mL (≈ 354 µM); IC50 [35]: 27 µg/mL (≈ 102 µM); EC50 [36, 50]: 0.06 µg/mL (≈ 0.226 µM); IC50 [36, 51]: > 100 µg/mL; Cytotoxity [37]: 8%; Protection [38]: 46%; Survivors / treated [39]: 4; Survivors / treated [40]: 4; Cytotoxity [41]: 41%; EC50 [42, 50]: 0.07 µg/mL (≈ 0.264 µM); IC50 [42, 51]: > 100 µg/mL; EC50 [43, 50]: 3.9 µg/mL (≈ 14.7 µM); IC50 [43, 51]: > 100 µg/mL; EC50 [44, 50]: 0.05 µg/mL (≈ 0.188 µM); IC50 [44, 51]: > 100 µg/mL

Q: With Nc1nc2c(ncn2[C@H]2CC[C@@H](CO)O2)c(=O)[nH]1 as the compound, how does the Protection [11] read?
A: Its Protection is 99%.

Q: And the Cytotoxicity [14]?
A: Its Cytotoxicity is 0%.

Q: What about the Cytotoxicity [45] of the same compound?
A: The Cytotoxicity was 50%.

Q: And the Protection [46]?
A: Its Protection is 54%.

Q: And the Protection [47]?
A: The Protection was 100%.

Q: What about the Cytotoxicity [33] of the same compound?
A: Its Cytotoxicity is 4%.

Q: And the Cytotoxicity [48]?
A: Its Cytotoxicity is 0%.

Q: And the Protection [49]?
A: The Protection was 48%.
